Read-outs that look alike come from different tables or passages of the source.
Key:
[1] = tested on: NF-κB p65 subunit; assay: NF-κB activity assay, p65 subunit in nuclear extract of RAW264.7 cells (Trans^AM ELISA); type: cell-based; conditions: CpG ODN 1.5 μM; 4 h; n = 3
Experimental: Figure 3 Synthetic peptide (SP) inhibited NF-κB activation induced by CpG oligodeoxynucleotides (CpG ODN) in RAW264.7 cells. RAW264.7 cells (5.0 × 10^6 cells) grown in six-well plates were treated with 1.5 μM of ODN2006 (A) or ODN107 (B) preincubated with SP (0, 0.5, 1.5, or 4.5 μM) or unrelated peptide (URP) (4.5 μM) at 37 °C for 15 min. After incubation for 4 h, the cells were collected to extract nuclear proteins. The p65 subunit was detected using enzyme-linked immunosorbent assay (ELISA) kits. Data from one of three independent experiments are shown (n = 3). “*”, p < 0.05 vs. ODN2006 or ODN107; “**”, p < 0.01 vs. ODN2006 or ODN107; “#”, p > 0.05 vs. ODN2006 or ODN107.
(§1) The RAW264.7 cell line was purchased from American Type Culture Collection (ATCC, Manassas, VA, USA). Cells were cultured in DMEM (high glucose) medium containing 10% FCS in a 37 °C humidified atmosphere with 5% CO2. Cells diluted with 0.4% trypan blue in phosphate-buffered saline (PBS, 0.1 mM, pH 7.2–7.4) were counted using a hemocytometer.
RAW264.7 cells (5.0 × 10^6 cells) were placed in six-well plates for 4 h, and the supernatants were then replaced with fresh medium containing 1.5 μM of ODN2006 or ODN107 that had been preincubated with SP (0, 0.5, 1.5, or 4.5 μM) or URP (4.5 μM) at 37 °C for 15 min. After incubation for 4 h, the cells were collected to extract nuclear proteins. Equal amounts of each sample were used to detect the DNA binding activity of the NF-κB p65 subunit using Trans^AM NF-κB ELISA kits (Active Motif), according to the manufacturer’s instructions.

[2] = tested on: RAW264.7 cells; assay: competitive internalization experiment with non-labeled ODN2006, confocal; type: cell-based; conditions: SP 1.5 μM, FAM-2006 1.5 μM, 30 min, n = 100
Experimental: However, the results could not exclude the possibility that SP might act on FAM not ODN2006 itself. Therefore, a competitive internalization experiment using non-labeled ODN2006 was performed. Non-labeled ODN2006 and FAM-2006 have same ability to bind SP, but FAM had no such ability. If SP specifically acted on ODN2006, non-labeled ODN2006 might increase FAM-2006 internalization, and the intracellular fluorescence intensity would increase. […] Therefore, FAM-2006 could completely enter the cells, resulting in a subsequent increase in intracellular fluorescence.
Figure 7 Non-labeled ODN2006 restored internalization of FAM-labeled ODN2006 preincubated with synthetic peptide (SP) (Scale bar = 20 μm). […] The intracellular FAM-2006 (green) (A), mean fluorescence intensity (MFI) values (B) and the percentages of cells with FAM-2006 dots (green fluorescence) (C) were observed as described in Figure 5 (n = 100). […]
RAW264.7 cells (1.0 × 10^6 cells) were grown on 2-cm glass bottom dishes for 4 h, and supernatants were replaced with 1 mL of serum-free DMEM medium containing FAM-2006 (1.5 μM) that had been pre-incubated with SP (0, 0.5, 1.5 or 4.5 μM) at 37 °C for 15 min. […] The intracellular FAM-2006 (green fluorescence) was observed using a laser confocal microscope. Mean fluorescence intensity (MFI) values were calculated by the ZEN lite 2012 software.

[3] = tested on: RAW264.7 cells; assay: TNF-α and IL-6 release from RAW264.7 cells, both cytokines stated together (ELISA); type: cell-based, mouse; conditions: for effect on TNF-α and IL-6 release (CpG ODN stimulation): CpG ODN 1.5 μM, 6 h, n = 4 (Figure 1)
Experimental: Figure 1 Synthetic peptide (SP) decreased TNF-α and IL-6 release from RAW264.7 cells treated with CpG oligodeoxynucleotides (CpG ODN). RAW264.7 cells (4.0 × 10^5 cells) grown in 48-well plates were treated with 1.5 μM of ODN2006 or ODN107 preincubated with SP (0, 0.5, 1.5, or 4.5 μM) or unrelated peptide (URP) (4.5 μM) at 37 °C for 15 min. After incubation for 6 h, the supernatants were collected to detect TNF-α (A) and IL-6 (B) using enzyme-linked immunosorbent assay (ELISA) kits. Data from one of three independent experiments are shown (n = 4). “*”, p < 0.05 vs. ODN2006 or ODN107; “**”, p < 0.01 vs. ODN2006 or ODN107; “#”, p > 0.05 vs. ODN2006 or ODN107.
(§2) Experiments were performed as described in Figure 1. The concentrations of ODN2006, LPS, PAM3 and SP were 1.5 μM, 20 ng/mL, 5 μg/mL and 1.5 μM, respectively. Data from one of three independent experiments are shown (n = 3).
as §1
(§3) RAW264.7 cells (4.0 × 10^5 cells) were incubated in 48-well plates for 4 h, and supernatants were replaced with 0.4 mL of serum-free DMEM medium containing 1.5 μM of ODN2006 or ODN107, which had been preincubated with 0, 0.5, 1.5 or 4.5 μM of SP or 4.5 μM of URP at 37 °C for 15 min. After incubation for 6 h, the supernatants were collected to detect TNF-α and IL-6 concentrations using corresponding ELISA kits (eBioscience).

[4] = tested on: IκBα; assay: IκBα degradation and phosphorylation in RAW264.7 cells (western blotting); type: cell-based; conditions: ODN2006 1.5 μM; 4 h
Experimental: Figure 4 Synthetic peptide (SP) decreased the phosphorylation of IκBα and ERK1/2 in RAW264.7 cells treated with CpG oligodeoxynucleotides (CpG ODN). RAW264.7 cells (1.0 × 10^7 cells) grown in 10-cm dishes were treated with 1.5 μM of ODN2006 (A) or ODN107 (B) pre-incubated with SP (0, 0.5, 1.5, or 4.5 μM) at 37 °C for 15 min. After incubation for 4 h, cells were harvested to extract total protein; and the protein expressions of IκBα, phosphorylated (p)-IκBα, ERK1/2 and p-ERK1/2 were detected by western blotting. Data from one of three independent experiments are shown.
as §1
RAW264.7cells (1.0 × 10^7 cells) were incubated in dishes for 4 h, and the supernatants were replaced with fresh medium containing 1.5 μM of ODN2006 that had been preincubated with 0.5, 1.5 or 4.5 μM of SP for 15 min. Cells were sequentially cultured for another 4 h and then harvested to extract total proteins. Equal amounts of proteins from each treatment were separated by SDS-PAGE, and transferred onto 0.22 μm PVDF membranes (Bio-Rad). […]

[5] = tested on: CpG ODN-induced cytokine release; conditions: ref [19],[20]; cited from earlier work
Source text: CpG ODN-induced diseases, such as sepsis and some autoimmune disorders, are triggered by uncontrolled release of proinflammatory cytokines, e.g., TNF-α and IL-6 [18]. […] Herein, we firstly evaluated the inhibitory effect of SP on CpG ODN-induced cytokine release in the cellular tests. Tw ... || NF-κB is one of the most important inflammatory switches that comprise a series of transcription factors that regulate the expressions of various proinflammatory cytokines (IL-1, IL-6, IL-8 and TNF-α). NF-κB activation is depended on the degradation and phosphorylation of IκBα [12].

[6] = cited from earlier work
Source text: (§4) CpG ODN must be internalized within cells before activating TLR9 signaling and inducing cytokines release. Thus, interfering with CpG ODN internalization probably leads to reduced activation of TLR9 signaling.

[7] = tested on: TLR signaling; conditions: inhibitors of clathrin-mediated phagocytosis; ref [24]; cited from earlier work
Source text: as §4

[8] = tested on: PAM3/TLR1/TLR2; assay: PAM3CSK4 (TLR1/2)-induced TNF-α and IL-6 release from RAW264.7 cells (ELISA); type: cell-based, mouse; conditions: PAM3 5 μg/mL; n = 3 (Figure 2)
Experimental: as §2, §1, §3

[9] = tested on: LPS/TLR4; assay: LPS (TLR4)-induced TNF-α and IL-6 release from RAW264.7 cells (ELISA); type: cell-based, mouse; conditions: LPS 20 ng/mL; n = 3 (Figure 2)
Experimental: as §2, §1, §3

Compound: 5′-TCGTCGTTTTGTCGTTTTGTCGTT-3′ [ODN2006]
- effect on activation of p65 (CpG ODN stimulation) [1]: significantly increased
- MFI and percentage of cells with green fluorescence (FAM-2006 + SP, competition) ([2]; non-labeled ODN2006 0, 0.5, 1.5 or 4.5 μM, dose-dependent): increased the MFI and the percentage of cells with green fluorescence
- restoration of FAM-2006 internalization (competition) ([2]; non-labeled ODN2006 4.5 μM): completely restore cell internalization of FAM-2006
- effect on TNF-α and IL-6 release (CpG ODN stimulation) [3]: significantly increased
- effect on TNF-α and IL-6 release (stimulation) ([3]; ODN2006 1.5 μM, n = 3 (Figure 2)): significantly increased
- levels of IκBα phosphorylation and degradation (CpG ODN stimulation) [4]: significantly increased

Compound: 5′-TGGCGCGGGCGG-3′ (DNA, all phosphorothioate, methylation of C not given here) [ODN107, a stimulatory CpG ODN developed in our laboratory]
- effect on activation of p65 (CpG ODN stimulation) [1]: significantly increased
- effect on TNF-α and IL-6 release (CpG ODN stimulation) [3]: significantly increased

Compound: CCN(CC)CCCC(C)Nc1ccnc2cc(Cl)ccc12 (stereo not shown) [chloroquine]
- effect on CpG ODN-induced cytokine release [5]: inhibitors of CpG ODN-induced cytokine release
- effect on proinflammatory cytokines [5]: inhibited proinflammatory cytokines

Compound: O=C(N/N=C/c1ccc(O)c(O)c1)c1cc2ccccc2cc1O [dynasore]
- cell toxicity ([6]; ref [24]): distinct cell toxicity
- effect on TLR signaling [7]: significant inhibitory effects on TLR signaling

Compound: CN(C)c1cccc2c(S(=O)(=O)NCCCCCN)cccc12 [monodansylcadaverine]
- cell toxicity [6]: distinct cell toxicity
- effect on TLR signaling [7]: significant inhibitory effects on TLR signaling

Compound: PAM3CSK4
- effect on TNF-α and IL-6 release (stimulation) [8]: significantly increased

Compound: lipopolysaccharide [LPS]
- effect on TNF-α and IL-6 release (stimulation) [9]: significantly increased

From PMC4783973, “Synthetic Human TLR9-LRR11 Peptide Attenuates TLR9 Signaling by Binding to and thus Decreasing Internalization of CpG Oligodeoxynucleotides” (International Journal of Molecular Sciences, 2016)
